# Where two headings read alike, the source gives them in different places. Numbered stars: 1 amine (or outer) side, 2 acyl side, 3 side chain; on linkers, the order of the positions; unused ones are H or OH. Square brackets hold non-standard residues; d marks the D form. Side chains are listed from the residue outwards. Peptide text beside a SMILES is read from it. * marks the point of attachment. C20 diacid = O=C(O)CCCCCCCCCCCCCCCCCCC(=O)*; C18 diacid = O=C(O)CCCCCCCCCCCCCCCCC(=O)*; γGlu = O=C(O)[C@H](CCC(=O)[*:2])N[*:1]; αMeF = C[C@](N)(Cc1ccccc1)C(=O)O; αMeL = CC(C)C[C@](C)(N)C(=O)O; AEEA = NCCOCCOCC(=O)O; Aib = CC(C)(N)C(=O)O
# Legend:
# [1] = Proteolytic stability assay in 1% rat small intestinal fluid (rSIF)
# Procedure: The stability of peptides are compared in 1% rat small intestinal fluid (rSIF). The amount of intact peptide is measured for a sample peptide at 0, 3, 15, and 30 minutes to assess proteolytic stability. The amount of intact peptide for a sample peptide is measured in 90% pig small intestinal fluid (pSIF) at 0, 30, 45, and 60 minutes to assess the proteolytic stability.
# Peptides are prepared at 0.4 mg/mL in 50 mM Tris pH8.0. […] The mixture is incubated at 37° C. at 150 rpm. Thirty μL of each sample are removed and placed into a new tube before the rSIF is added and at […]. At each time point, the reaction was quenched by 1% TFA in 50% ACN at 1:1. The samples are diluted 100 times using dilution buffer (1:1 of 1% TFA in 50% ACN: 50 mM Tris pH8) and ready for analysis using mass spectrometry (MS).
# The data analysis is performed using MassLynx.
# [2] = biological target: T1, human GLP-1R (Homo sapiens, UniProt P43220); assay: [125I]-GLP-1 binding (SPA), human GLP-1 receptor; parameters: expressed in transfected cells; crude membranes
# T1 sequence (P43220 24-463): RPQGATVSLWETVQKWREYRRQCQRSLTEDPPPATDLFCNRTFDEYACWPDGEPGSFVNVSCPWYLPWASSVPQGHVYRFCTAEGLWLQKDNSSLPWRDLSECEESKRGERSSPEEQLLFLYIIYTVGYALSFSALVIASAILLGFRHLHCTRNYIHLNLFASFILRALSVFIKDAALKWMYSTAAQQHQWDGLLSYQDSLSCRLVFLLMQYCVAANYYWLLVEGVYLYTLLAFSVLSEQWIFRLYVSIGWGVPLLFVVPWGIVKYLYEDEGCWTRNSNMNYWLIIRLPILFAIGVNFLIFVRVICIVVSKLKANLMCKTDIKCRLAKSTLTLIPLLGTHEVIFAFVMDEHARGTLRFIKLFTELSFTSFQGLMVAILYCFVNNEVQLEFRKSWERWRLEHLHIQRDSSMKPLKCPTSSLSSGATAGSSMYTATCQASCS
# Outline: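 Membranes: hypotonic lysis (50 mM Tris HCl, pH 7.5, protease inhibitors), Potter-Elvehjem homogenization, high-speed pellet (35000×g 1 h or 25000×g 30 min, 4° C.). Buffer: 25 mM HEPES pH 7.4, 2.5 mM CaCl2, 1 mM MgCl2. Four-parameter IC50 fit; Ki as geometric mean ± SEM.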
# [3] = tested on: CD8+ T cell depleted peripheral blood mononuclear cells; assay: CD4+ T cell assay for potential clinical immunogenicity
# Procedure: (§1) The purpose of this study is to determine the relative potential for clinical immunogenicity of a compound.
# (§2) CD8+ T cell depleted peripheral blood mononuclear cells are prepared and labeled with Carboxyfluorescein Diacetate Succinimidyl Ester (CFSE, Invitrogen) from a cohort of 10 healthy donors. […] Cultures are incubated for 7 days at 37° C. with 5% CO2. On day 7, samples are analyzed by flow cytometry using High Throughput Sampler (HTS). Data is analyzed using FlowJo® Software (FlowJo, LLC, TreeStar).
# [4] = biological target: T1, human GLP-1R; assay: GLP-1R CHO cell β-arrestin recruitment assay; type: cell-based; parameters: host or cells: CHO-K1 PathHunter cells, assay-ready frozen; details: for hGLP1R B-Arrestin2 % Top: normalized to GLP-1 maximum control
# Outline: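 Peptide-induced β-arrestin-2 recruitment measured by enzyme-fragment complementation luminescence after 90 min at 37 °C plus 60 min detection at RT.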
# [5] = tested on: CD8+ T cell depleted peripheral blood mononuclear cells
# Procedure: as §1, §2
# [6] = rat, real gastrointestinal fluid or homogenate, pH 8
# [7] = read-out: hGLP1R Ki, (nM) (SEM, n)
# [8] = CHO-K1 cells, PathHunter β-arrestin-2 recruitment, 0.1% casein, read-out: hGLP1R B-Arrestin2 Rel EC50 uM (SEM, n)
Compound,"percentage of peptide not cleaved using rSIF ([1]; 0 min, 1% rSIF, 37° C.)","remaining at 0.05 h, 0.4 mg/mL [1, 6]","remaining at 0.25 h, 0.4 mg/mL [1, 6]","remaining at 1 h, 0.4 mg/mL [1, 6]",Ki [2],frequency of positive CD+ T cell response (CDI>2.5) ([3]; CD4+ T cell assay),"% Donor Response (CD4+ T cell response) ([3]; Examples 10 uM, KLH 0.33 μM, 7 days)",EC50 [4],hGLP1R B-Arrestin2 % Top [4],frequency of positive CD+ T cell response (CDI>2.5) [5],"Ki [2, 7]","EC50 [4, 8]"
CC[C@H](C)[C@H](NC(=O)[C@H](CC(C)C)NC(=O)[C@](C)(Cc1ccc(O)cc1)NC(=O)[C@@H](CCC(=O)O)NC(=O)[C@@H](NC(=O)[C@H](Cc1ccccc1)NC(=O)[C@H](CCC(=O)O)NC(=O)C(C)(C)NC(=O)[C@H](CCC(N)=O)NC(=O)[C@H](C)NC(=O)[C@H](CCCCNC(=O)COCCOCCNC(=O)COCCOCCNC(=O)CC[C@H](NC(=O)CCCCCCCCCCCCCCCCC(=O)O)C(=O)O)NC(=O)[C@H](CCCN)NC(=O)[C@H](CC(=O)O)NC(=O)[C@H](CC(C)C)NC(=O)[C@](C)(CC(C)C)NC(=O)[C@@H](NC(=O)[C@H](CO)NC(=O)[C@H](Cc1ccncc1)NC(=O)[C@H](CC(=O)O)NC(=O)[C@H](CO)NC(=O)[C@@H](NC(=O)[C@](C)(Cc1ccccc1F)NC(=O)[C@@H](NC(=O)CNC(=O)[C@H](CCC(=O)O)NC(=O)C(C)(C)NC(=O)[C@@H](N)Cc1ccc(O)cc1)[C@@H](C)O)[C@@H](C)O)[C@@H](C)CC)[C@@H](C)CC)C(=O)N[C@@H](CCC(=O)O)C(=O)NCC(=O)NCC(=O)N1CCC[C@H]1C(=O)N[C@@H](CO)C(=O)N[C@@H](CO)C(=O)NCC(=O)N[C@@H](C)C(=O)N1CCC[C@H]1C(=O)N1CCC[C@H]1C(=O)N1CCC[C@H]1C(=O)N[C@@H](CO)C(N)=O [Example 4],100%,97.9%,99.3%,89.4%,1.63 nM,low,0%,0.0048 µM,92.4%,,,
CC[C@H](C)[C@H](NC(=O)[C@H](CC(C)C)NC(=O)[C@H](Cc1ccc(O)cc1)NC(=O)[C@H](CCC(=O)O)NC(=O)[C@@H](NC(=O)[C@H](Cc1ccccc1)NC(=O)[C@H](C)NC(=O)C(C)(C)NC(=O)[C@H](CCC(N)=O)NC(=O)[C@H](C)NC(=O)[C@H](CCCCNC(=O)COCCOCCNC(=O)COCCOCCNC(=O)CC[C@H](NC(=O)CCCCCCCCCCCCCCCCCCC(=O)O)C(=O)O)NC(=O)[C@H](CCCCN)NC(=O)[C@H](CC(=O)O)NC(=O)[C@H](CC(C)C)NC(=O)[C@H](CC(C)C)NC(=O)[C@@H](NC(=O)[C@H](CO)NC(=O)[C@H](Cc1ccc(O)cc1)NC(=O)[C@H](CC(=O)O)NC(=O)[C@H](CO)NC(=O)[C@@H](NC(=O)[C@H](Cc1ccccc1)NC(=O)[C@@H](NC(=O)CNC(=O)[C@H](CCC(=O)O)NC(=O)C(C)(C)NC(=O)[C@@H](N)Cc1ccc(O)cc1)[C@@H](C)O)[C@@H](C)O)[C@@H](C)CC)[C@@H](C)CC)C(=O)N[C@@H](C)C(=O)NCC(=O)NCC(=O)N1CCC[C@H]1C(=O)N[C@@H](CO)C(=O)N[C@@H](CO)C(=O)NCC(=O)N[C@@H](C)C(=O)N1CCC[C@H]1C(=O)N1CCC[C@H]1C(=O)N1CCC[C@H]1C(=O)N[C@@H](CO)C(N)=O [Example 288] (H-Y[Aib]EGTFTSDYSILLDKK([AEEA-AEEA-γGlu-C20 diacid])AQ[Aib]AFIEYLIAGGPSSGAPPPS-NH2; N-terminus assumed),,,,,,,,,21.3%,low,1.6 nM,0.00674 µM
CC[C@H](C)[C@H](NC(=O)[C@H](CC(C)C)NC(=O)[C@H](Cc1ccc(O)cc1)NC(=O)[C@H](CCC(=O)O)NC(=O)[C@@H](NC(=O)[C@H](Cc1ccccc1)NC(=O)[C@H](CCC(=O)O)NC(=O)C(C)(C)NC(=O)[C@H](CCC(N)=O)NC(=O)[C@H](C)NC(=O)[C@H](CCCCNC(=O)COCCOCCNC(=O)COCCOCCNC(=O)CC[C@H](NC(=O)CCCCCCCCCCCCCCCCCCC(=O)O)C(=O)O)NC(=O)[C@H](CCCCN)NC(=O)[C@H](CC(=O)O)NC(=O)[C@H](CC(C)C)NC(=O)[C@](C)(CC(C)C)NC(=O)[C@@H](NC(=O)[C@H](CO)NC(=O)[C@H](Cc1ccc(O)cc1)NC(=O)[C@H](CC(=O)O)NC(=O)[C@H](CO)NC(=O)[C@@H](NC(=O)[C@H](Cc1ccccc1)NC(=O)[C@@H](NC(=O)CNC(=O)[C@H](CCC(=O)O)NC(=O)C(C)(C)NC(=O)[C@@H](N)Cc1ccc(O)cc1)[C@@H](C)O)[C@@H](C)O)[C@@H](C)CC)[C@@H](C)CC)C(=O)N[C@@H](C)C(=O)NCC(=O)NCC(=O)N1CCC[C@H]1C(=O)N[C@@H](CO)C(=O)N[C@@H](CO)C(=O)NCC(=O)N[C@@H](C)C(=O)N1CCC[C@H]1C(=O)N1CCC[C@H]1C(=O)N1CCC[C@H]1C(=O)N[C@@H](CO)C(N)=O [Example 289] (H-Y[Aib]EGTFTSDYSI[αMeL]LDKK([AEEA-AEEA-γGlu-C20 diacid])AQ[Aib]EFIEYLIAGGPSSGAPPPS-NH2),,,,,,,,,51.3%,low,2.63 nM,0.0124 µM
CC[C@H](C)[C@H](NC(=O)[C@H](CC(C)C)NC(=O)[C@H](Cc1ccc(O)cc1)NC(=O)[C@H](CCC(=O)O)NC(=O)[C@@H](NC(=O)[C@H](Cc1ccccc1)NC(=O)[C@H](C)NC(=O)C(C)(C)NC(=O)[C@H](CCC(N)=O)NC(=O)[C@H](C)NC(=O)[C@H](CCCCNC(=O)COCCOCCNC(=O)COCCOCCNC(=O)CC[C@H](NC(=O)CCCCCCCCCCCCCCCCC(=O)O)C(=O)O)NC(=O)[C@H](CCCCN)NC(=O)[C@H](CC(=O)O)NC(=O)[C@H](CC(C)C)NC(=O)[C@H](CC(C)C)NC(=O)[C@@H](NC(=O)[C@H](CO)NC(=O)[C@H](Cc1ccc(O)cc1)NC(=O)[C@H](CC(=O)O)NC(=O)[C@H](CO)NC(=O)[C@@H](NC(=O)[C@](C)(Cc1ccccc1)NC(=O)[C@@H](NC(=O)CNC(=O)[C@H](CCC(=O)O)NC(=O)C(C)(C)NC(=O)[C@@H](N)Cc1ccc(O)cc1)[C@@H](C)O)[C@@H](C)O)[C@@H](C)CC)[C@@H](C)CC)C(=O)N[C@@H](CCC(=O)O)C(=O)NCC(=O)NCC(=O)N1CCC[C@H]1C(=O)N[C@@H](CO)C(=O)N[C@@H](CO)C(=O)NCC(N)=O [Example 301] (H-Y[Aib]EGT[αMeF]TSDYSILLDKK([AEEA-AEEA-γGlu-C18 diacid])AQ[Aib]AFIEYLIEGGPSSG-NH2),,,,,,,,,93.7%,low,0.875 nM,0.00267 µM
CC[C@H](C)[C@H](NC(=O)[C@H](CC(C)C)NC(=O)[C@H](Cc1ccc(O)cc1)NC(=O)[C@H](CCC(=O)O)NC(=O)[C@@H](NC(=O)[C@H](Cc1ccccc1)NC(=O)[C@H](C)NC(=O)C(C)(C)NC(=O)[C@H](CCC(N)=O)NC(=O)[C@H](C)NC(=O)[C@H](CCCCNC(=O)COCCOCCNC(=O)COCCOCCNC(=O)CC[C@H](NC(=O)CCCCCCCCCCCCCCCCC(=O)O)C(=O)O)NC(=O)[C@H](CCC(=O)O)NC(=O)[C@H](CC(=O)O)NC(=O)[C@H](CC(C)C)NC(=O)[C@](C)(CC(C)C)NC(=O)[C@@H](NC(=O)[C@H](CO)NC(=O)[C@H](Cc1ccc(O)cc1)NC(=O)[C@H](CC(=O)O)NC(=O)[C@H](CO)NC(=O)[C@@H](NC(=O)[C@H](Cc1ccccc1)NC(=O)[C@@H](NC(=O)CNC(=O)[C@H](CCC(=O)O)NC(=O)C(C)(C)NC(=O)[C@@H](N)Cc1ccc(O)cc1)[C@@H](C)O)[C@@H](C)O)[C@@H](C)CC)[C@@H](C)CC)C(=O)N[C@@H](CCC(=O)O)C(=O)NCC(=O)NCC(=O)N1CCC[C@H]1C(=O)N[C@@H](CO)C(=O)N[C@@H](CO)C(=O)NCC(N)=O [Example 303] (H-Y[Aib]EGTFTSDYSI[αMeL]LDEK([AEEA-AEEA-γGlu-C18 diacid])AQ[Aib]AFIEYLIEGGPSSG-NH2),,,,,,,,,47.7%,low,3.69 nM,0.0179 µM

# Reference: patent US12252524B2, “GIP/GLP1 co-agonist compounds” (Eli Lilly and Company, priority 2018, dated 2025)
